Data published in patent US9676714B2, “Sulfonylindole derivatives and method for preparing the same” (Daewoong Pharmaceutical Co., Ltd., priority 2013, dated 2017).
Counter-ions that a name gives are not always drawn.

Legend:
[1] = target: T1, proton pump (H+/K+-ATPase) (Sus scrofa, UniProt P19156); experiment: Measurement of inhibitory effects on proton pump (H+/K+-ATPase) activities; format: biochemical; conditions: hog gastric vesicles, K+-specific H+/K+-ATPase activity, Tris-HCl buffer pH 7.4, 37° C. for 40 minutes, malachite green Pi readout
T1 construct: Gastric vesicles were prepared from hog stomach via centrifugal separation; from tissue; host or cells: hog stomach (gastric vesicles, method of Rabon et al. 1988)
Outline: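 Hog gastric vesicles in 60 mmol/l Tris-HCl pH 7.4 with 0.5% DMSO were treated with compounds at room temperature; reaction was started with 10 μl of 10 mmol/l ATP stock. Released Pi was read at 570 nm, K+-specific activity taken as the ±K+ difference. IC50 from 4-parameter logistic fit.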

[2] = system: basal gastric acid secretion; experiment: Inhibitory effect on the basal gastric acid secretion in pylorus-ligated rats (Shay's rat model); format: in vivo, Sprague Dawley (SD) rats; conditions: 5 h, male SD rats, 3 mg/kg/2 ml into the duodenum, five hours after the ligation, total gastric acid secretion vs control group
Experimental: 3) Inhibitory Effect on the Basal Gastric Acid Secretion in Pylorus-Ligated Rats
Assays for determining inhibitory effect of the compounds of the present invention on the basal gastric acid secretion was performed according to Shay's rat model (Shay, H., et al., 1945, gastroenterology, 5, p. 43-61). Male Sprague Dawley (SD) rats with a body weight in the range of 180˜220 g were divided into test (n=5) and control groups (n=5), and fasted for 18 hours with free access to water. Under isoflurane anesthesia, the abdomens of the rats were incised and then the pylorus was ligated. After the ligation, the control groups were administered with only 10% ethanol, 20% polyethylene glycol (PEG) 400, and 10% aqueous Cremophor solution through the duodenum, and the other groups were administered with test compounds suspended in 10% ethanol, 20% PEG 400, and 10% aqueous Cremophor solution at a concentration of 3 mg/kg/2 ml into the duodenum. Five hours after the ligation, the experimental animals were euthanized and their stomach contents were collected. The thus obtained contents were centrifuged at 4,000×g for 10 minutes, and the supernatant was recovered to obtain gastric juice therefrom. The amount of the gastric juice and its pH were measured. The acidity of the gastric juice was determined by 0.1 N-NaOH volume (ueq/mL) for automatic titration of gastric acid to pH 7.0. The total acid output was obtained by multiplying the gastric acidity by the amount of gastric juice. Inhibition Activity (%) of Test Compounds=(total gastric acid secretion in control group−total gastric acid secretion in groups treated with test compounds)/total gastric acid secretion in control group×100

T1 sequence (P19156 whole entry): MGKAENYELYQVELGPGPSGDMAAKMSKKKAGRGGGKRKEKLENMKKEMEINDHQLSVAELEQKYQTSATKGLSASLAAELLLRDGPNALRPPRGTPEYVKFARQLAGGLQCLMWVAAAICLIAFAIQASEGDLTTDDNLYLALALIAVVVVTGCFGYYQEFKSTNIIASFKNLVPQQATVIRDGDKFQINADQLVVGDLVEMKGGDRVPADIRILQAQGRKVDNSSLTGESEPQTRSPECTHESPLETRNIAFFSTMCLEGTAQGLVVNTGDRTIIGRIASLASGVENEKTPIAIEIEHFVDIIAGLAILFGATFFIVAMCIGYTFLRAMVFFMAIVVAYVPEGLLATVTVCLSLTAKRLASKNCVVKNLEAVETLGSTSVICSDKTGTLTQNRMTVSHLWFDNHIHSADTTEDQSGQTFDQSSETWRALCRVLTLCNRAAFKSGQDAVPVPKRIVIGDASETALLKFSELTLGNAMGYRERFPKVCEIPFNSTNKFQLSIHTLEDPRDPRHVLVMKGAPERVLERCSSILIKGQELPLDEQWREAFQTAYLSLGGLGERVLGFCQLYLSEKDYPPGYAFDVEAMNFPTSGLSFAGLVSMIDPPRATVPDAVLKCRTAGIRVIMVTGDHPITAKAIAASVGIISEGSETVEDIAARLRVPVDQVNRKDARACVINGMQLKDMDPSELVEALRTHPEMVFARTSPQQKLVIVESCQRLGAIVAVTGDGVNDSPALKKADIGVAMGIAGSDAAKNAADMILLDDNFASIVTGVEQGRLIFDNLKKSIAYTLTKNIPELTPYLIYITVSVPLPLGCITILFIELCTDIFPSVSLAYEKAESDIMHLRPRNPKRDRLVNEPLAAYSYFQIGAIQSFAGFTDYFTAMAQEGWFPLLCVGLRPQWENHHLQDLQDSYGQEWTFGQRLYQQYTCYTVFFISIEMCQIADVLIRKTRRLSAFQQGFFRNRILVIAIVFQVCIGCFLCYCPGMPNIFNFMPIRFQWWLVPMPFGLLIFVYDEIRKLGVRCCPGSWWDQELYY
T1 sequence (P18434 whole entry partner): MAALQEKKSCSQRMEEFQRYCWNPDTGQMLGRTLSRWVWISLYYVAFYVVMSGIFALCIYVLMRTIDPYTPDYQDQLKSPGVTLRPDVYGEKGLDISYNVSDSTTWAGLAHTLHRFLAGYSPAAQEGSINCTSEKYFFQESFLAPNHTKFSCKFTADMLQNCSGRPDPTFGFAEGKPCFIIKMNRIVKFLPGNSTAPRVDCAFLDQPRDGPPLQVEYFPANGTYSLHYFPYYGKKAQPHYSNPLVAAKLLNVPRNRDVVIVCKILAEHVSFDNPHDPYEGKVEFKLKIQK

| SMILES | IC50 [1] [nM] | inhibition in vivo at 3 mg/kg [2] [%] |
| --- | --- | --- |
| CNCc1cn(S(=O)(=O)c2cccnc2)c2cc(Nc3ccc(C)c(F)c3F)ccc12 [Example 65, N-(2,3-difluoro-4-methylphenyl)-3-((methylamino)methyl)-1-(pyridin-3-ylsulfonyl)-1H-indol-6-amine hydrochloride] | 310 | 42 |
| CNCc1cn(S(=O)(=O)c2cncc(F)c2)c2cc(Nc3ccc(F)cc3Cl)ccc12 [Example 213, N-(2-chloro-4-fluorophenyl)-1-((5-fluoropyridin-3-yl)sulfonyl)-3-((methylamino)methyl)-1H-indol-6-amine hydrochloride] | 160 | 50 |
| CNCc1cn(S(=O)(=O)c2cccnc2)c2cc(Nc3ccc(C)cc3F)ccc12 [Example 1, N-(2-fluoro-4-methylphenyl)-3-((methylamino)methyl)-1-(pyridin-3-ylsulfonyl)-1H-indol-6-amine hydrochloride] | 180 | 58 |
| CNCc1cn(S(=O)(=O)c2cccc(OC(F)F)c2)c2cc(Nc3ccc(OC)nc3Cl)ccc12 [Example 182, N-(2-chloro-6-methoxypyridin-3-yl)-1-((3-(difluoromethoxy)phenyl)sulfonyl)-3-((methylamino)methyl)-1H-indol-6-amine hydrochloride] | 390 | 44 |
| CNCc1cn(S(=O)(=O)c2cccnc2)c2cc(Cc3ccc(C)cc3F)ccc12 [Example 272, 1-(6-(2-fluoro-4-methylbenzyl)-1-(pyridin-3-ylsulfonyl)-1H-indol-3-yl)-N-methylmethanamine hydrochloride] | 500 | 41 |
| CNCc1cn(S(=O)(=O)c2cccc(Cl)c2)c2cc(Nc3ccc(OC)nc3Cl)ccc12 [Example 160, N-(2-chloro-6-methoxypyridin-3-yl)-1-((3-chlorophenyl)sulfonyl)-3-((methylamino)methyl)-1H-indol-6-amine hydrochloride] | 290 | 57 |
| CNCc1cn(S(=O)(=O)c2cccnc2)c2cc(Cc3ccc(F)cc3Cl)ccc12 [Example 273, 1-(6-(2-chloro-4-fluorobenzyl)-1-(pyridin-3-ylsulfonyl)-1H-indol-3-yl)-N-methylmethanamine hydrochloride] | 370 | 32 |
| CNCc1cn(S(=O)(=O)c2cccnc2)c2cc(Nc3ccc(OC)cc3[N+](=O)[O-])ccc12 [Example 52, N-(4-methoxy-2-nitrophenyl)-3-((methylamino)methyl)-1-(pyridin-3-ylsulfonyl)-1H-indol-6-amine hydrochloride] | 290 | 70 |
| CNCc1cn(S(=O)(=O)c2cccc(Cl)c2)c2cc(Nc3ccc(Cl)cc3C(F)(F)F)ccc12 [Example 151, N-(4-chloro-2-(trifluoromethyl)phenyl)-1-((3-chlorophenyl)sulfonyl)-3-((methylamino)methyl)-1H-indol-6-amine hydrochloride] | 510 |  |
| CNCc1cn(S(=O)(=O)c2cccnc2)c2cc(Nc3cc(C)ccc3F)ccc12 [Example 59, N-(2-fluoro-5-methylphenyl)-3-((methylamino)methyl)-1-(pyridin-3-ylsulfonyl)-1H-indol-6-amine hydrochloride] | 350 |  |
| CNCc1cn(S(=O)(=O)c2cccnc2)c2cc(Nc3ccc(C)cc3C)ccc12 [Example 21, N-(2,4-dimethylphenyl)-3-((methylamino)methyl)-1-(pyridin-3-ylsulfonyl)-1H-indol-6-amine hydrochloride] | 210 |  |
| CNCc1cn(S(=O)(=O)c2cccc(C(F)(F)F)c2)c2cc(Nc3ccc(OC(F)(F)F)cc3C)ccc12 [Example 189, N-(2-methyl-4-(trifluoromethoxy)phenyl)-3-((methylamino)methyl)-1-((3-(trifluoromethyl)phenyl)sulfonyl)-1H-indol-6-amine hydrochloride] | 650 |  |
| CNCc1cn(S(=O)(=O)c2ccc(OC)nc2)c2cc(Nc3ccc(C)cc3F)ccc12 [Example 242, N-(2-fluoro-4-methylphenyl)-1-((6-methoxypyridin-3-yl)sulfonyl)-3-((methylamino)methyl)-1H-indol-6-amine hydrochloride] | 3850 |  |
| CNCc1cn(S(=O)(=O)c2cccc(Cl)c2)c2cc(Nc3ccc(C)cc3F)ccc12 [Example 146, 1-((3-chlorophenyl)sulfonyl)-N-(2-fluoro-4-methylphenyl)-3-((methylamino)methyl)-1H-indol-6-amine hydrochloride] | 150 |  |
| CNCc1cn(S(=O)(=O)c2cccnc2)c2cc(-c3cnn(C)c3)ccc12 [Example 249, N-methyl-1-(6-(1-methyl-1H-pyrazol-4-yl)-1-(pyridin-3-ylsulfonyl)-1H-indol-3-yl)methanamine] | 50000 |  |
| CNCc1cn(S(=O)(=O)c2ccc(Cl)cc2)c2cc(Nc3ccc(C)cc3F)ccc12 [Example 230, 1-((4-chlorophenyl)sulfonyl)-N-(2-fluoro-4-methylphenyl)-3-((methylamino)methyl)-1H-indol-6-amine hydrochloride] | 910 |  |
| CNCc1cn(S(=O)(=O)c2cccnc2)c2cc(Nc3ccc(F)c(C)c3C)ccc12 [Example 66, N-(4-fluoro-2,3-dimethylphenyl)-3-((methylamino)methyl)-1-(pyridin-3-ylsulfonyl)-1H-indol-6-amine hydrochloride] | 270 |  |
| CNCc1cn(S(=O)(=O)c2cccc(OC(F)(F)F)c2)c2cc(Nc3ccc(C)nc3Cl)ccc12 [Example 205, N-(2-chloro-6-methylpyridin-3-yl)-3-((methylamino)methyl)-1-((3-(trifluoromethoxy)phenyl)sulfonyl)-1H-indol-6-amine hydrochloride] | 1750 |  |
| CNCc1cn(S(=O)(=O)c2cccnc2)c2cc(Nc3ccc(C(F)(F)F)nc3C)ccc12 [Example 124, N-(2-methyl-6-(trifluoromethyl)pyridin-3-yl)-3-((methylamino)methyl)-1-(pyridin-3-ylsulfonyl)-1H-indol-6-amine hydrochloride] | 580 |  |
| CNCc1cn(S(=O)(=O)c2cccnc2)c2cc(Nc3ccc(C)nc3Cl)ccc12 [Example 113, N-(2-chloro-6-methylpyridin-3-yl)-3-((methylamino)methyl)-1-(pyridin-3-ylsulfonyl)-1H-indol-6-amine hydrochloride] | 340 |  |
| CNCc1cn(S(=O)(=O)c2cccnc2)c2cc(Nc3ccc(F)cc3)ccc12 [Example 9, N-(4-fluorophenyl)-3-((methylamino)methyl)-1-(pyridin-3-ylsulfonyl)-1H-indol-6-amine hydrochloride] | 1050 |  |
| COc1cc(OC(F)(F)F)ccc1Nc1ccc2c(C(=O)N(C)C)cn(S(=O)(=O)c3cccnc3)c2c1 [Example 328, 6-((2-methoxy-4-(trifluoromethoxy)phenyl)amino)-N,N-dimethyl-1-(pyridin-3-ylsulfonyl)-1H-indol-3-carboxamide] | 5000 |  |
| CNCc1cn(S(=O)(=O)c2cccnc2)c2cc(Nc3ccc(F)c(OC)c3F)ccc12 [Example 68, N-(2,4-difluoro-3-methoxyphenyl)-3-((methylamino)methyl)-1-(pyridin-3-ylsulfonyl)-1H-indol-6-amine hydrochloride] | 2390 |  |
| CNCc1cn(S(=O)(=O)c2cccnc2)c2cc(Nc3ccc([N+](=O)[O-])cc3Cl)ccc12 [Example 41, N-(2-chloro-4-nitrophenyl)-3-((methylamino)methyl)-1-(pyridin-3-ylsulfonyl)-1H-indol-6-amine hydrochloride] | 480 |  |
| COC(=O)c1cn(S(=O)(=O)c2cccnc2)c2cc(-c3ccc(OC)nc3)ccc12 [Example 338, methyl 6-(6-methoxypyridin-3-yl)-1-(pyridin-3-ylsulfonyl)-1H-indol-3-carboxylate] | 3500 |  |
| CNCc1cn(S(=O)(=O)c2cccnc2)c2cc(Cc3ccc(OC)cc3F)ccc12 [Example 277, 1-(6-(2-fluoro-4-methoxybenzyl)-1-(pyridin-3-ylsulfonyl)-1H-indol-3-yl)-N-methylmethanamine hydrochloride] | 760 |  |
| CNCc1cn(S(=O)(=O)c2cccc(OC(F)F)c2)c2cc(-c3cnc(OC)nc3)ccc12 [Example 266, 1-(1-((3-(difluoromethoxy)phenyl)sulfonyl)-6-(2-methoxypyrimidin-5-yl)-1H-indol-3-yl)-N-methylmethanamine hydrochloride] | 45000 |  |
| CNCc1cn(S(=O)(=O)c2cccnc2)c2cc(Nc3ccc(Cl)nc3C)ccc12 [Example 118, N-(6-chloro-2-methylpyridin-3-yl)-3-((methylamino)methyl)-1-(pyridin-3-ylsulfonyl)-1H-indol-6-amine hydrochloride] | 480 |  |
